Patent US20060063759A1, “Tricyclic steroid hormone nuclear receptor modulators” (priority 2002, published 2006)

Key:
[1] = target: T1, human MR (Homo sapiens, UniProt P08235); assay: Mineralocorticoid Receptor Binding Assay ([3H]-aldosterone); details: [3H]-aldosterone binding, human MR expressed in Sf9 cells; read-out: MR Ki
T1 construct: The full length human MR gene is cloned from a human kidney or human brain cDNA library; His tag from the pAcHLT vector (own knowledge); made in house; host or cells: Sf9 insect cells (baculovirus, pAcHLT transfer vector)
T1 sequence (P08235 1-984): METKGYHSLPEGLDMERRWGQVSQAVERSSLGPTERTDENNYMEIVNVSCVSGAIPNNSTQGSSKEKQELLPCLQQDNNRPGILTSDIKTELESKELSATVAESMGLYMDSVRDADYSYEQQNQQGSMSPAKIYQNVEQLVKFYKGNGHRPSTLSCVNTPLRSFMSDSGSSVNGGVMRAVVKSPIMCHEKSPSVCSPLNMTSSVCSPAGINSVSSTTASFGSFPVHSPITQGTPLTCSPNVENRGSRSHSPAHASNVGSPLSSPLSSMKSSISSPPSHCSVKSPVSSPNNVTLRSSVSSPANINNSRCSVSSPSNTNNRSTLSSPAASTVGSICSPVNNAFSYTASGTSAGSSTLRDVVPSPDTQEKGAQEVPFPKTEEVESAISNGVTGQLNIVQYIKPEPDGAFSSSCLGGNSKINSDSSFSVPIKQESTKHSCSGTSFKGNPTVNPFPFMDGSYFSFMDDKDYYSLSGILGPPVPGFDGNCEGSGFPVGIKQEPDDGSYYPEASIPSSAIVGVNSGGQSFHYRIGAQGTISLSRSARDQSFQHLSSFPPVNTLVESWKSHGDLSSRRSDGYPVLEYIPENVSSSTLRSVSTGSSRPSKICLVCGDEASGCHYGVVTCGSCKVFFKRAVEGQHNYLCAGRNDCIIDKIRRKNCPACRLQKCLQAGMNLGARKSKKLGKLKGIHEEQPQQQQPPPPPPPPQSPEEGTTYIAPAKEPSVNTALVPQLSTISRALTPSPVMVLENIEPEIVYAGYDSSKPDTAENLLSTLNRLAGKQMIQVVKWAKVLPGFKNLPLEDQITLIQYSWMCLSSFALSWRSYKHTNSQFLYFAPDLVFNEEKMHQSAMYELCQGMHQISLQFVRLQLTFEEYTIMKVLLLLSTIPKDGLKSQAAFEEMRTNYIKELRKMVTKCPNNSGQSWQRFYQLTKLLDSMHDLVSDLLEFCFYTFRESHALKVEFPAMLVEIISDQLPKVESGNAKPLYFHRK
Procedure, shortened: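 Lysate supernatant of Sf9 cells expressing full-length human MR (20-25 μg protein) was incubated with 0.5 nM [3H]-aldosterone and test compound in molybdate/Tris/phosphate/glycerol buffer, pH 7.5, ~16 h at 4 °C. Bound ligand was filtered and counted by scintillation; IC50 is the concentration halving [3H]-aldosterone binding.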

[2] = target: T2, glucocorticoid receptor (Homo sapiens, UniProt P04150); assay: Glucocorticoid Receptor Binding Assay ([3H]-dexamethasone, A549 cell extract); details: [3H]-dexamethasone binding, read-out: GR Ki
T2 construct: containing 50-200 ug of A549 cell extract and 1.86 nM [^3H]-dexamethasone; host or cells: A549 human lung epithelial cells (sonicated cell extract)
T2 sequence (P04150 1-777): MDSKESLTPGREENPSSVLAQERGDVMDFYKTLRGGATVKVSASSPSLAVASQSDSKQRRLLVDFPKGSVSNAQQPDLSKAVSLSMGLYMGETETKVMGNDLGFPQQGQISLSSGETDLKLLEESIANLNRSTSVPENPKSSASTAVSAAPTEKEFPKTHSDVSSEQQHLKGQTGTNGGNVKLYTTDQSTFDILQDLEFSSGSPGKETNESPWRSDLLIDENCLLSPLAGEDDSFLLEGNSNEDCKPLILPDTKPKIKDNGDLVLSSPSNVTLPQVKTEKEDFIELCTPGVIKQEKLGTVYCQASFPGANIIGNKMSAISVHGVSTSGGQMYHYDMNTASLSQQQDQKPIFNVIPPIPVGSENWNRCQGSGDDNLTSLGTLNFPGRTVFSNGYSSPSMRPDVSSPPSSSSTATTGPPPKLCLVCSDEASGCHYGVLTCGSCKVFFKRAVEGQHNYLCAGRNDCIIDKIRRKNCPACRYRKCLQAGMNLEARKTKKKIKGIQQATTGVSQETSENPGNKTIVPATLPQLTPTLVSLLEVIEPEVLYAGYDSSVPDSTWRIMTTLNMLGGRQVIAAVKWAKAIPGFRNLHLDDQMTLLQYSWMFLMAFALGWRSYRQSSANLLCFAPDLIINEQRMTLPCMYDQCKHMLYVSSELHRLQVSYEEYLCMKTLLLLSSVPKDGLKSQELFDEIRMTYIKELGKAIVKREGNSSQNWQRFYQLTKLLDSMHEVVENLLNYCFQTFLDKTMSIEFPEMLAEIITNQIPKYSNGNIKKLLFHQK
Procedure, shortened: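 A549 cell extract (50–200 ug) incubated with 1.86 nM [3H]-dexamethasone and test compound for 16 h at 4 °C in Tris-HCl pH 7.2 buffer with glycerol and molybdate. Unbound radioligand removed by dextran-coated charcoal, then supernatant bound counts measured by scintillation.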

SMILES	Ki [1] [nM]	Ki [2] [nM]
O=c1[nH]c2cc(/C=C3\c4ccccc4COc4cc(Cl)ccc43)ccc2n1CCN1CCOCC1 [Example 647]	< 500	< 1000
COc1cccc(C=C2c3ccccc3CNc3ccccc32)c1 [Example 650]	< 500	< 500
CN1C(=O)c2ccccc2C(=Cc2cccc(N)c2)c2ccccc21 [Example 651]	< 500	< 1000
CN1C(=O)c2ccccc2C(=Cc2cccc(NS(C)(=O)=O)c2)c2ccccc21 [Example 652]	< 500	< 10000
CN1Cc2ccccc2C(=Cc2cccc(NS(C)(=O)=O)c2)c2ccccc21 [Example 653]	< 500	< 1000
COc1cccc(C=C2c3cc(Cl)ccc3NC(=O)c3ccccc32)c1 [Example 654]	< 500	< 500
COc1cccc(C=C2c3ccccc3C(=O)N(C)c3ccc(Cl)cc32)c1 [Example 656]	< 500	< 500
COC(=O)c1ccc2c(c1)/C(=C\c1cccc(NS(C)(=O)=O)c1)c1ccccc1CO2 [Example 659]	< 1000	< 10000
COc1ccc2c(c1)OCc1ccccc1/C2=C/c1cccc(NS(C)(=O)=O)c1 [Example 660]	< 500	< 500
COc1ccc2c(c1)OCc1ccccc1/C2=C\c1cccc(NS(C)(=O)=O)c1 [Example 661]	< 500	< 500
CS(=O)(=O)Nc1cccc(/C=C2/c3ccccc3COc3c(Cl)cccc32)c1 [Example 662]	< 500	< 500
CS(=O)(=O)Nc1cccc(/C=C2\c3ccccc3COc3c(Cl)cccc32)c1 [Example 663]	< 500	< 500
CS(=O)(=O)Nc1cccc(/C=C2/c3ccccc3COc3cc(Cl)ccc32)c1 [Example 664]	< 500	< 500
CS(=O)(=O)Nc1cccc(/C=C2\c3ccccc3COc3cc(Cl)ccc32)c1 [Example 665]	< 500	< 500
CN(c1cccc(/C=C2/c3ccccc3COc3c(Cl)cccc32)c1)S(C)(=O)=O [Example 666]	< 500	< 500
CN(c1cccc(/C=C2\c3ccccc3COc3cc(Cl)ccc32)c1)S(C)(=O)=O [Example 667]	< 1000	< 10000
COc1cc2c(cc1Br)/C(=C/c1cccc(NS(C)(=O)=O)c1)c1ccccc1CO2 [Example 668]	< 500	< 1000
COc1cccc2c1OCc1ccccc1/C2=C/c1cccc(NS(C)(=O)=O)c1 [Example 669]	< 500	< 500
CS(=O)(=O)Nc1cccc(/C=C2\c3ccccc3COc3c(F)cccc32)c1 [Example 670]	< 500	< 500

Next, values leading:

Ki [1] [nM]	Ki [2] [nM]	SMILES
< 500	< 1000	O=c1[nH]c2ccc(/C=C3\c4ccccc4COc4cc(Cl)ccc43)cc2[nH]1 [Example 614, 5-(3-Chloro-6H-dibenzo[b,e]oxepin-11-ylidenemethyl)-1,3-dihydro-benzoimidazol-2-one]
< 500	< 500	O=c1[nH]c2cc(/C=C3\c4ccc(F)cc4COc4cc(F)ccc43)ccc2n1CCN1CCOCC1 [Example 617, 5-(3,8-Difluoro-6H-dibenzo[b,e]oxepin-11-ylidenemethyl)-1-(2-morpholin-4-yl-ethyl)-1,3-dihydro-benzoimidazol-2-one]
< 500	< 500	O=c1[nH]c2cc(/C=C3/c4ccccc4COc4ccccc43)ccc2o1 [Example 619]
< 500	< 500	O=c1[nH]c2cc(/C=C3\c4ccccc4COc4ccccc43)ccc2o1 [Example 620]
< 500	< 10000	CS(=O)(=O)Nc1cccc(/C=C2/c3ccccc3OCc3c(Cl)cccc32)c1 [Example 622]
< 500	< 500	CS(=O)(=O)Nc1cc(F)cc(/C=C2\c3ccc(Cl)cc3COc3ccccc32)c1 [Example 623]
< 500	< 500	CS(=O)(=O)Nc1cc(F)cc(/C=C2/c3ccc(Cl)cc3COc3ccccc32)c1 [Example 624]
< 500	< 10000	O=c1[nH]c2ccc(C=C3c4ccccc4COc4ccccc43)cc2[nH]1 [Example 626]
< 500	< 500	Oc1cccc(/C=C2/c3ccccc3COc3cc(F)ccc32)c1 [Example 627]
< 500	< 500	Oc1cccc(/C=C2\c3ccccc3COc3cc(F)ccc32)c1 [Example 628]
< 500	< 500	CS(=O)(=O)Nc1cccc(/C=C2/c3ccccc3COc3cc(F)ccc32)c1 [Example 629]
< 500	< 500	CS(=O)(=O)Nc1cccc(/C=C2\c3ccccc3COc3cc(F)ccc32)c1 [Example 630]
< 500	< 500	O=c1[nH]c2cc(/C=C3/c4ccccc4COc4cc(F)ccc43)ccc2o1 [Example 632]
< 500	< 500	O=c1[nH]c2cc(/C=C3\c4ccccc4COc4cc(F)ccc43)ccc2o1 [Example 633]
< 500	< 500	Cn1c(=O)[nH]c2cc(/C=C3/c4ccccc4COc4cc(F)ccc43)ccc21 [Example 634]
< 500	< 1000	Cn1c(=O)[nH]c2cc(/C=C3\c4ccccc4COc4cc(F)ccc43)ccc21 [Example 635]
< 500	< 500	O=c1[nH]c2cc(/C=C3/c4ccccc4COc4cc(F)ccc43)ccc2s1 [Example 636]
< 500	< 500	O=c1[nH]c2cc(/C=C3\c4ccccc4COc4cc(F)ccc43)ccc2s1 [Example 637]
< 500	< 1000	CC(C)n1c(=O)[nH]c2cc(/C=C3/c4ccccc4COc4cc(F)ccc43)ccc21 [Example 638]
< 500	< 10000	COc1ccc2c(c1)OCc1ccccc1C2=Cc1ccc2[nH]c(=O)[nH]c2c1 [Example 639]
< 500	< 500	Fc1ccc2c(c1)OCc1ccccc1C2=Cc1cccc(C(F)F)c1 [Example 640]
< 500	< 1000	O=c1[nH]c2ccc(/C=C3\c4ccc(Cl)cc4COc4ccccc43)cc2[nH]1 [Example 641]
< 500	< 1000	O=c1[nH]c2ccc(/C=C3\c4ccccc4COc4c(F)cccc43)cc2[nH]1 [Example 642]
< 500	< 10000	O=c1[nH]c2ccc(/C=C3\c4ccccc4COc4cc(C(F)(F)F)ccc43)cc2[nH]1 [Example 643]
< 500	< 1000	O=c1[nH]c2ccc(C=C3c4ccc(F)cc4COc4cc(F)ccc43)cc2[nH]1 [Example 644]
< 500	< 1000	O=c1[nH]c2cc(/C=C3\c4ccccc4COc4cc(F)ccc43)ccc2n1CCN1CCCC1 [Example 646]
